± gives the expanded uncertainty stated by the source.
Settings: 101.33 kPa, Liquid; for speed of sound: Pulse-echo method; for mass density: Vibrating tube method

C[NH2+]CCO.O=C[O-] [2-hydroxy-N-methylethanaminium formate]
Settings | mass density [kg/m3] | speed of sound [m/s] | viscosity [mPa·s]
278.15 K | 1139.41 ± 2.3 | 1854.7 ± 2.2 | –
278.4 K | 1139.26 ± 2.3 | 1854.2 ± 2.2 | –
278.65 K | 1139.13 ± 2.3 | 1853.7 ± 2.2 | –
278.9 K | 1138.99 ± 2.3 | 1853.2 ± 2.2 | –
279.15 K | 1138.85 ± 2.3 | 1852.7 ± 2.2 | –
279.4 K | 1138.71 ± 2.3 | 1852.2 ± 2.2 | –
279.65 K | 1138.58 ± 2.3 | 1851.7 ± 2.2 | –
279.9 K | 1138.44 ± 2.3 | 1851.2 ± 2.2 | –
280.15 K | 1138.3 ± 2.3 | 1850.7 ± 2.2 | –
280.4 K | 1138.16 ± 2.3 | 1850.2 ± 2.2 | –
280.65 K | 1138.02 ± 2.3 | 1849.7 ± 2.2 | –
280.9 K | 1137.88 ± 2.2 | 1849.2 ± 2.2 | –
281.15 K | 1137.73 ± 2.2 | 1848.7 ± 2.2 | –
281.4 K | 1137.6 ± 2.2 | 1848.2 ± 2.2 | –
281.65 K | 1137.46 ± 2.2 | 1847.7 ± 2.2 | –
281.9 K | 1137.32 ± 2.2 | 1847.2 ± 2.2 | –
282.15 K | 1137.18 ± 2.2 | 1846.8 ± 2.2 | –
282.4 K | 1137.04 ± 2.2 | 1846.3 ± 2.2 | –
282.65 K | 1136.9 ± 2.2 | 1845.8 ± 2.2 | –
282.9 K | 1136.77 ± 2.2 | 1845.3 ± 2.2 | –
283.15 K | 1136.62 ± 2.2 | 1844.8 ± 2.2 | –
283.4 K | 1136.49 ± 2.2 | 1844.3 ± 2.2 | –
283.65 K | 1136.35 ± 2.2 | 1843.8 ± 2.2 | –
283.9 K | 1136.21 ± 2.2 | 1843.3 ± 2.2 | –
284.15 K | 1136.07 ± 2.2 | 1842.8 ± 2.2 | –
284.4 K | 1135.93 ± 2.2 | 1842.3 ± 2.2 | –
284.65 K | 1135.79 ± 2.2 | 1841.8 ± 2.2 | –
284.9 K | 1135.65 ± 2.2 | 1841.3 ± 2.2 | –
285.15 K | 1135.51 ± 2.2 | 1840.8 ± 2.2 | –
285.4 K | 1135.37 ± 2.2 | 1840.3 ± 2.2 | –
285.65 K | 1135.23 ± 2.2 | 1839.8 ± 2.2 | –
285.9 K | 1135.09 ± 2.2 | 1839.3 ± 2.2 | –
286.15 K | 1134.95 ± 2.2 | 1838.9 ± 2.2 | –
286.4 K | 1134.81 ± 2.2 | 1838.4 ± 2.2 | –
286.65 K | 1134.67 ± 2.2 | 1837.9 ± 2.2 | –
286.9 K | 1134.53 ± 2.2 | 1837.4 ± 2.2 | –
287.15 K | 1134.39 ± 2.2 | 1836.9 ± 2.2 | –
287.4 K | 1134.25 ± 2.2 | 1836.4 ± 2.2 | –
287.65 K | 1134.11 ± 2.2 | 1835.9 ± 2.2 | –
287.9 K | 1133.97 ± 2.2 | 1835.4 ± 2.2 | –
288.15 K | 1133.84 ± 2.2 | 1834.9 ± 2.2 | 34.2
288.4 K | 1133.69 ± 2.2 | 1834.4 ± 2.2 | –
288.65 K | 1133.55 ± 2.2 | 1833.9 ± 2.2 | –
288.9 K | 1133.41 ± 2.2 | 1833.4 ± 2.2 | –
289.15 K | 1133.28 ± 2.2 | 1833 ± 2.2 | –
289.4 K | 1133.13 ± 2.2 | 1832.5 ± 2.2 | –
289.65 K | 1133 ± 2.2 | 1832 ± 2.2 | –
289.9 K | 1132.86 ± 2.2 | 1831.5 ± 2.2 | –
290.15 K | 1132.72 ± 2.2 | 1831 ± 2.2 | –
290.4 K | 1132.58 ± 2.2 | 1830.5 ± 2.2 | –
290.65 K | 1132.44 ± 2.2 | 1830 ± 2.2 | 30.15
290.9 K | 1132.3 ± 2.2 | 1829.5 ± 2.2 | –
291.15 K | 1132.16 ± 2.2 | 1829 ± 2.2 | –
291.4 K | 1132.01 ± 2.2 | 1828.5 ± 2.2 | –
291.65 K | 1131.88 ± 2.2 | 1828 ± 2.2 | –
291.9 K | 1131.74 ± 2.2 | 1827.5 ± 2.2 | –
292.15 K | 1131.6 ± 2.2 | 1827 ± 2.2 | –
292.4 K | 1131.46 ± 2.2 | 1826.6 ± 2.2 | –
292.65 K | 1131.32 ± 2.2 | 1826.1 ± 2.2 | –
292.9 K | 1131.18 ± 2.2 | 1825.6 ± 2.2 | –
293.15 K | 1131.04 ± 2.2 | 1825.1 ± 2.2 | 26.05
293.4 K | 1130.9 ± 2.2 | 1824.6 ± 2.2 | –
293.65 K | 1130.76 ± 2.2 | 1824.1 ± 2.2 | –
293.9 K | 1130.62 ± 2.2 | 1823.6 ± 2.2 | –
294.15 K | 1130.48 ± 2.2 | 1823.2 ± 2.2 | –
294.4 K | 1130.34 ± 2.2 | 1822.7 ± 2.2 | –
294.65 K | 1130.2 ± 2.2 | 1822.2 ± 2.2 | –
294.9 K | 1130.06 ± 2.2 | 1821.7 ± 2.2 | –
295.15 K | 1129.92 ± 2.2 | 1821.2 ± 2.2 | –
295.4 K | 1129.78 ± 2.2 | 1820.7 ± 2.2 | –
295.65 K | 1129.64 ± 2.2 | 1820.2 ± 2.2 | 23.22
295.9 K | 1129.5 ± 2.2 | 1819.7 ± 2.2 | –
296.15 K | 1129.37 ± 2.2 | 1819.2 ± 2.2 | –
296.4 K | 1129.23 ± 2.2 | 1818.7 ± 2.2 | –
296.65 K | 1129.08 ± 2.2 | 1818.2 ± 2.2 | –
296.9 K | 1128.94 ± 2.2 | 1817.7 ± 2.2 | –
297.15 K | 1128.8 ± 2.2 | 1817.3 ± 2.2 | –
297.4 K | 1128.66 ± 2.2 | 1816.8 ± 2.2 | –
297.65 K | 1128.52 ± 2.2 | 1816.3 ± 2.2 | –
297.9 K | 1128.38 ± 2.2 | 1815.8 ± 2.2 | –
298.15 K | 1128.25 ± 2.2 | 1815.3 ± 2.2 | 20.27
298.4 K | 1128.11 ± 2.2 | 1814.8 ± 2.2 | –
298.65 K | 1127.96 ± 2.2 | 1814.3 ± 2.2 | –
298.9 K | 1127.83 ± 2.2 | 1813.8 ± 2.2 | –
299.15 K | 1127.69 ± 2.2 | 1813.4 ± 2.2 | –
299.4 K | 1127.55 ± 2.2 | 1812.9 ± 2.2 | –
299.65 K | 1127.41 ± 2.2 | 1812.4 ± 2.2 | –
299.9 K | 1127.27 ± 2.2 | 1811.9 ± 2.2 | –
300.15 K | 1127.13 ± 2.2 | 1811.4 ± 2.2 | –
300.4 K | 1126.99 ± 2.2 | 1810.9 ± 2.2 | –
300.65 K | 1126.85 ± 2.2 | 1810.4 ± 2.2 | 18.37
300.9 K | 1126.71 ± 2.2 | 1809.9 ± 2.2 | –
301.15 K | 1126.57 ± 2.2 | 1809.5 ± 2.2 | –
301.4 K | 1126.43 ± 2.2 | 1809 ± 2.2 | –
301.65 K | 1126.29 ± 2.2 | 1808.5 ± 2.2 | –
301.9 K | 1126.15 ± 2.2 | 1808 ± 2.2 | –
302.15 K | 1126.02 ± 2.2 | 1807.5 ± 2.2 | –
302.4 K | 1125.87 ± 2.2 | 1807 ± 2.2 | –
302.65 K | 1125.73 ± 2.2 | 1806.5 ± 2.2 | –
302.9 K | 1125.59 ± 2.2 | 1806 ± 2.2 | –
303.15 K | 1125.45 ± 2.2 | 1805.6 ± 2.2 | 16.4
303.4 K | 1125.32 ± 2.2 | 1805.1 ± 2.2 | –
303.65 K | 1125.18 ± 2.2 | 1804.6 ± 2.2 | –
303.9 K | 1125.04 ± 2.2 | 1804.1 ± 2.2 | –
304.15 K | 1124.89 ± 2.2 | 1803.6 ± 2.2 | –
304.4 K | 1124.76 ± 2.2 | 1803.2 ± 2.2 | –
304.65 K | 1124.62 ± 2.2 | 1802.7 ± 2.2 | –
304.91 K | 1124.48 ± 2.2 | 1802.2 ± 2.2 | –
305.15 K | 1124.34 ± 2.2 | 1801.7 ± 2.2 | 15.1
305.4 K | 1124.2 ± 2.2 | 1801.2 ± 2.2 | –
305.65 K | 1124.06 ± 2.2 | 1800.7 ± 2.2 | –
305.9 K | 1123.92 ± 2.2 | 1800.2 ± 2.2 | –
306.15 K | 1123.78 ± 2.2 | 1799.7 ± 2.2 | –
306.4 K | 1123.64 ± 2.2 | 1799.3 ± 2.2 | –
306.65 K | 1123.5 ± 2.2 | 1798.8 ± 2.2 | –
306.9 K | 1123.36 ± 2.2 | 1798.3 ± 2.2 | –
307.15 K | 1123.22 ± 2.2 | 1797.8 ± 2.2 | –
307.4 K | 1123.08 ± 2.2 | 1797.3 ± 2.2 | –
307.65 K | 1122.94 ± 2.2 | 1796.8 ± 2.2 | –
307.9 K | 1122.8 ± 2.2 | 1796.3 ± 2.2 | –

Source: the NIST ThermoML archive (doi:10.1021/je900550v)
